Reference: PubChem BioAssay AID1845207 (Molecular Pharmacology Branch, DTP, NCI, 2023)

System: NCI-H1876 tumor spheroid viability
Test: Anticancer human tumor NCI-H1876 cell line growth inhibition;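 further: spheroids exposed to compounds for seven days before the viability read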;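 on viability, T/C: percent of DMSO vehicle control viability so 100% = vehicle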
Settings: spheroids with HUVEC and MSC; for IC50: curve of first compound; for viability, T/C: stronger effect = lower value
Excerpt: Multicellular complex tumor spheroid response to DNA repair inhibitors in combination with DNA-damaging drugs
This study explores the anticancer activities of DNA-damaging drugs and inhibitors of DNA damage repair, both as single agents and in combinations. Complex tumor spheroids comprised of malignant cells, endothelial cells and mesenchymal stem cells served as an in vitro model for human solid tumors. This model system incorporates physiologically relevant features and patient-derived or established malignant cell lines with clinically relevant genetic alterations from many tumor types. Twenty-six patient-derived or established malignant cell lines were evaluated representing sarcoma, melanoma, small cell lung cancer (SCLC), non-small cell lung cancer (NSCLC), as well as bladder, ovarian and pancreatic cancers. The concentration ranges selected for each drug and investigational agent were based upon clinically achievable concentrations if the clinical Cmax of the agent was known.
Compounds. The drugs and compounds olaparib (NSC753686), talazoparib (NSC767125), berzosertib (NSC777718), elimusertib (NSC800525), nedisertib (NSC802822), VX-984 (NSC792969), AZD-1390 (NSC803789), temozolomide (NSC362856), topotecan (NSC609699), trabectedin (NSC813783), staurosporine (NSC755774), and gemcitabine (NSC613327) were obtained from the National Cancer Institute (NCI) Developmental Therapeutics Program Chemical Repository. The FDA-approved anticancer drug set is available from the Developmental Therapeutics Program at https://dtp.cancer.gov/organization/dscb/obtaining/available_plates.htm. […] The stock solutions were prepared in dimethyl sulfoxide (DMSO, Sigma-Aldrich, St. Louis, MO, cat. D2650) at 400-fold the tested concentration and stored at -70 degrees C. Prior to their use, the stock solutions were diluted in fresh medium and the final DMSO concentration in the assay was 0.25% (v/v). All drugs and investigational agents were tested over a range starting from a high concentration at or near the clinical Cmax and decreasing in half-log increments. If the clinical Cmax for an agent had not been determined, the highest concentration tested was 10 microM.
Cell Lines. The patient-derived cancer cell (PDC) lines: 156681-154-R-J1-PDC, 283228-195-R-J1-PDC, 287954-098-R-J1-PDC, 292921-168-R-J2-PDC, 349418-098-R-PDC, 425362-245-T-J1-PDC, 556581-035-R-J1-PDC, and BL0293-F563-PDC were received from the NCI Patient-Derived Models Repository (PDMR, https://pdmr.cancer.gov). The established cell lines HS-SY-2 (RRID:CVCL_8719), MPNST, and SYO-1 (RRID:CVCL_7146) were obtained from the Sloan Kettering Institute. The alveolar soft parts sarcoma cell line ASPS-1 (RRID:CVCL_S738) was established at the NCI and grown from internal seed stocks. The following established cell lines were purchased from the American Type Culture Collection (ATCC, Manassas, VA): G-401 (ATCC, cat. CRL-1441, RRID:CVCL_0270), SW982 (ATCC, cat. HTB-93, RRID:CVCL_1734), VA-ES-BJ (ATCC, cat. CRL-2138, RRID:CVCL_1785), NCI-H719 (ATCC, cat. CRL-5837, RRID:CVCL_1582), NCI-H196 (ATCC, cat. CRL-5823, RRID:CVCL_1509), NCI-H841 (ATCC, cat. CRL-5845, RRID:CVCL_1595), NCI-H1618 (ATCC, cat. CRL-5879, RRID:CVCL_1480), NCI-H1876 (ATCC, cat. CRL-5902, RRID:CVCL_1503), DMS 114 (ATCC, cat. CRL-2066; RRID:CVCL_1174), NCI-H211 (ATCC, cat. CRL-5824; RRID:CVCL_1529), and SW 1271 (ATCC, cat. CRL-2177, RRID:CVCL_1716). The small cell lung cancer cell line COR-L88 was purchased from Sigma-Aldrich (cat. 92031917-1VL, RRID:CVCL_1141). The non-small cell lung cancer cell lines NCI-H226 (RRID:CVCL_1544) and NCI-H322M (RRID:CVCL_1557) were established at the NCI and grown from internal seed stocks. Pooled donor human umbilical vein endothelial cells (HUVEC, Lonza, cat. CC-2519) and human mesenchymal stem cells (hMSC, Lonza, cat. PT-2501) were purchased from Lonza (Walkersville, MD).
Cell Culture. All cells were maintained in an incubator at 37 degrees C and 5% CO2 with 95% humidity. […]

SMILES: Cc1sc2c(c1C)C(c1ccc(Cl)cc1)=NC(CC(=O)Nc1ccc(O)cc1)c1nnc(C)n1-2 (stereo not given) + Cn1nnc2c(C(N)=O)ncn2c1=O
- IC50 (second compound 1 µM): 55.8 nM
- IC50 (second compound 3.16 µM): 176 nM
- IC50 (second compound 10 µM): 89.4 nM
- IC50 (second compound 31.6 µM): 73.7 nM
- IC50 (second compound 100 µM): 23.5 nM
- viability, T/C (second compound 1 µM, first compound 0.00949 µM): 85.6%
- viability, T/C (second compound 1 µM, first compound 0.03 µM): 56%
- viability, T/C (second compound 1 µM, first compound 0.0949 µM): 45%
- viability, T/C (second compound 1 µM, first compound 0.3 µM): 27%
- viability, T/C (second compound 1 µM, first compound 0.949 µM): 15.7%
- viability, T/C (second compound 1 µM, first compound 3 µM): 8.48%
- viability, T/C (second compound 3.16 µM, first compound 0.00949 µM): 84%
- viability, T/C (second compound 3.16 µM, first compound 0.03 µM): 75.2%
- viability, T/C (second compound 3.16 µM, first compound 0.0949 µM): 54.2%
- viability, T/C (second compound 3.16 µM, first compound 0.3 µM): 50.6%
- viability, T/C (second compound 3.16 µM, first compound 0.949 µM): 15.3%
- viability, T/C (second compound 3.16 µM, first compound 3 µM): 10.5%
- viability, T/C (second compound 10 µM, first compound 0.00949 µM): 87.3%
- viability, T/C (second compound 10 µM, first compound 0.03 µM): 62.2%
- viability, T/C (second compound 10 µM, first compound 0.0949 µM): 55.1%
- viability, T/C (second compound 10 µM, first compound 0.3 µM): 31%
- viability, T/C (second compound 10 µM, first compound 0.949 µM): 15.1%
- viability, T/C (second compound 10 µM, first compound 3 µM): 9%
- viability, T/C (second compound 31.6 µM, first compound 0.00949 µM): 87.3%
- viability, T/C (second compound 31.6 µM, first compound 0.03 µM): 75.6%
- viability, T/C (second compound 31.6 µM, first compound 0.0949 µM): 39.4%
- viability, T/C (second compound 31.6 µM, first compound 0.3 µM): 25.6%
- viability, T/C (second compound 31.6 µM, first compound 0.949 µM): 13.2%
- viability, T/C (second compound 31.6 µM, first compound 3 µM): 8.31%
- viability, T/C (second compound 100 µM, first compound 0.00949 µM): 63.4%
- viability, T/C (second compound 100 µM, first compound 0.03 µM): 44.6%
- viability, T/C (second compound 100 µM, first compound 0.0949 µM): 34.2%
- viability, T/C (second compound 100 µM, first compound 0.3 µM): 19.6%
- viability, T/C (second compound 100 µM, first compound 0.949 µM): 9.06%
- viability, T/C (second compound 100 µM, first compound 3 µM): 4.09%
